Measured values taken from ChEMBL document CHEMBL1201862, “PubChem BioAssay data set” (2004).
Calls of active or inactive are those of the source.

What was measured:
[1] = molecular target: Mitochondrial peptide methionine sulfoxide reductase (Bos taurus, UniProt P54149); type: functional;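 further: absorbance read-out, biochemical high-throughput dose-response screen for MsrA inhibitors, confirmatory; recombinant bovine MsrA coupled to E. coli TrxB with NADPH and selenocystamine; potency is for inhibitors of MsrA activity on DMSO substrate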
[2] = inhibitors of Vif binding to APOBEC3G peptide, primary screen, biochemical, TR-FRET, GST-Vif 1-94, biotin-A3G peptide, dose response retest (AID 1117319); type: functional;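 further: TR-FRET signal of purified GST-Vif binding a biotinylated A3G peptide; inhibitors lower the FRET signal by blocking Vif and A3G binding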
[3] = miR-122 activators in hepatoma reporter cells, dose response, cell-based, Huh7 psiCHECK-miR122, Renilla luciferase, cherry-picked (AID 651956); type: functional;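 further: huh7 hepatoma cells stably carrying a psiCHECK-2 miR-122 sensor plasmid; renilla luciferase signal reporting endogenous miR-122 activity after 48 h compound exposure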
P388/ADR = experiment: cells; type: functional; conditions: Mus musculus
SN12K1 = experiment: cells; type: functional; conditions: Homo sapiens
P388 = experiment: cells; type: functional; conditions: Mus musculus
[4] = HEK293T cell viability, dose response, counter-screen for EBV LMP1 inhibitor project, CellTiter-Glo luminescence, dry powder (AID 624372); type: functional, HEK293
[5] = molecular target: T1, Short transient receptor potential channel 4 (Mus musculus, UniProt Q9QUQ5); experiment: mouse TRPC4 channel inhibitors, dose response, cell-based, HEK293 TRPC4/mu-opioid, Fluo-4 calcium (AID 434942); type: functional;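 further: potency of inhibitors blocking the TRPC4 calcium response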
T1 sequence (Q9QUQ5 whole entry): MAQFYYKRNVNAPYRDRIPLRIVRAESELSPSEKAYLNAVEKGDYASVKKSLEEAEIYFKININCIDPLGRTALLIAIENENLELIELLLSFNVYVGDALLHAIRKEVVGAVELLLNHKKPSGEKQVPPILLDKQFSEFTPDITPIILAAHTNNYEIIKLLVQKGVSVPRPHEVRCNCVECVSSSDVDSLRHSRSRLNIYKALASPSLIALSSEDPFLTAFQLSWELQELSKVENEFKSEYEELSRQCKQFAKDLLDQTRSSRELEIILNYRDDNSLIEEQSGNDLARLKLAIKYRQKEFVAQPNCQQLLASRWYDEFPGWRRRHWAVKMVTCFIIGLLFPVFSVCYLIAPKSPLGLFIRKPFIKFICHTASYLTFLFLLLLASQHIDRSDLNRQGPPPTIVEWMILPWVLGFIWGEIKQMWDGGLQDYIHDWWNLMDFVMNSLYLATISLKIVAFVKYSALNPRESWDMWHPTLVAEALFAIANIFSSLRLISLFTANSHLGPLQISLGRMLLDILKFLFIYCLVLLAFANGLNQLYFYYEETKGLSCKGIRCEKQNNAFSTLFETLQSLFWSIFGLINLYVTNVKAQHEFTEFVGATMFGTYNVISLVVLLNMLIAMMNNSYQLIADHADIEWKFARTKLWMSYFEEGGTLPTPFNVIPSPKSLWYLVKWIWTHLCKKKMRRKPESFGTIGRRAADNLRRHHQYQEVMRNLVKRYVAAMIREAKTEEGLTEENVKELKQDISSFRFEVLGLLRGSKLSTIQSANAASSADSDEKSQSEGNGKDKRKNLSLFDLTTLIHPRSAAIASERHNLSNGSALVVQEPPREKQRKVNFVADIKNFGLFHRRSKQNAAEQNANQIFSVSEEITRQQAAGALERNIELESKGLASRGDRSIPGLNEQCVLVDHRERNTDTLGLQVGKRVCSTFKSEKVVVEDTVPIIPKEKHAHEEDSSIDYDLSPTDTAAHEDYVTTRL

[6] = molecular target: SWI/SNF-related matrix-associated actin-dependent regulator of chromatin subfamily A member 2 (Homo sapiens, UniProt P51531); experiment: Luminescence-based cell-based high throughput dose response assay to identify activators of the function of SWI/SNF related, matrix associated, actin dependent regulator of chromatin, subfamily a, member 2 (SMARCA2, BRM).; type: functional
[7] = Counterscreen for activators of the function of SWI/SNF related, matrix associated, actin dependent regulator of chromatin, subfamily a, member 2 (SMARCA2, BRM): Luminescence-based cell-based high throughput dose response assay to identify non-selective compounds using the VP16 reporter assay.; type: functional
[8] = molecular target: T2, Polyadenylate-binding protein 1 (Homo sapiens, UniProt P11940); experiment: PABP1 MLLE–PAM2 interaction inhibitors, dose response, miRNA deadenylation inhibitor project, biochemical, fluorescence polarization, Cy5-PAM2 peptide, secondary (AID 602260); type: functional; conditions: read-out: IC50_Mean
[9] = molecular target: T2, Polyadenylate-binding protein 1; experiment: PABP1 MLLE–PAM2 binding inhibitor potency, dose response, biochemical, fluorescence polarization, FITC-PAM2 peptide (AID 602259); type: functional; conditions: read-out: IC50_Mean
[10] = molecular target: T3, Sentrin-specific protease 8 (Homo sapiens, UniProt Q96LD8); type: functional
T3 sequence (Q96LD8 whole entry): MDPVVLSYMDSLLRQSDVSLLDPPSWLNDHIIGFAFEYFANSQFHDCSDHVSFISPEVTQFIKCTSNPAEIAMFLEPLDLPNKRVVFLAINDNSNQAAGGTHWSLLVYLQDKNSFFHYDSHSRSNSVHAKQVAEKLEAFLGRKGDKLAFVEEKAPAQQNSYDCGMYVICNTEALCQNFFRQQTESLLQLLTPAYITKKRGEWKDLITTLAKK

[11] = molecular target: T3, Sentrin-specific protease 8; type: functional; remark: listed apart in the source
Caspase-3 = molecular target: T4, Caspase-3 (Homo sapiens, UniProt P42574); experiment: Dose-response confirmation of uHTS inhibitor hits of Sentrin-Specific Protease 8 in a Caspase-3 Fluorescence assay.; type: functional
T4 sequence (P42574 whole entry): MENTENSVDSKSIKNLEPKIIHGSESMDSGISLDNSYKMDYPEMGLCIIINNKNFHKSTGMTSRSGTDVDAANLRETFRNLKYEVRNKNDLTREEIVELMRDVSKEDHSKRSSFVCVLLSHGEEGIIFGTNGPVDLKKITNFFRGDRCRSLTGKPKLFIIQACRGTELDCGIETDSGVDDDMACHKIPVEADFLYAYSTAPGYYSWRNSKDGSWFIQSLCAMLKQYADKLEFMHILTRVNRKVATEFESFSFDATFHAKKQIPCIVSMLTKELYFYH

[12] = molecular target: T5, Corticotropin-releasing factor receptor 2/Corticotropin-releasing factor-binding protein (Homo sapiens, UniProt P24387+Q13324); experiment: Dose Response confirmation of uHTS hits for small molecule antagonists of the CRF-binding protein and CRF-R2 receptor complex.; type: functional; conditions: read-out: IC50_Mean
T5 sequence (Q13324 whole entry): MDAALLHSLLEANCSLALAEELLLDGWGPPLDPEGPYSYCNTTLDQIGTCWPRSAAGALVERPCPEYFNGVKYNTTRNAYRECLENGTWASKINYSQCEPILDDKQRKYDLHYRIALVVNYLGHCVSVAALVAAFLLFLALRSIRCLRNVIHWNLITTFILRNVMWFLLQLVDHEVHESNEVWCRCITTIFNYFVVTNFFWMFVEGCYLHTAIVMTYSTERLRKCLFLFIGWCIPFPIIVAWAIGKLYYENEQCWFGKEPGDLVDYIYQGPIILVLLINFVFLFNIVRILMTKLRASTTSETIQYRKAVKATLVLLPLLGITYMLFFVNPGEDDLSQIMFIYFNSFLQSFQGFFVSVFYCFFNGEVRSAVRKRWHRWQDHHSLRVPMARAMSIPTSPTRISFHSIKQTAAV
T5 sequence (P24387 whole entry): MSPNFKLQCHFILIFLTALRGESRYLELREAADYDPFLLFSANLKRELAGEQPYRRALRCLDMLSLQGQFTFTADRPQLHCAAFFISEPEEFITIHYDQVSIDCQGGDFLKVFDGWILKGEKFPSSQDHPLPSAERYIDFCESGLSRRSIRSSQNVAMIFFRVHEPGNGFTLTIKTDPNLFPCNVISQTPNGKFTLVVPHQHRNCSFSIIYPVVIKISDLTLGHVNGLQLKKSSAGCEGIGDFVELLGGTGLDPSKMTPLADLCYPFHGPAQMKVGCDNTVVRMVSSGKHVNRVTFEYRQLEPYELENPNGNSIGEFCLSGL

[13] = molecular target: T5, Corticotropin-releasing factor receptor 2/Corticotropin-releasing factor-binding protein; experiment: activators of CRF receptor 2 with binding protein – uHTS hits, confirmation (AID 602473); type: functional; conditions: read-out: EC50_Mean
[14] = CRF-BP/CRF-R2 complex antagonists, dose response, cell-based, uHTS hits, 384-well (AID 651639); type: functional, Homo sapiens; conditions: read-out: IC50_Mean
[15] = system: Streptococcus sp. 'group A'; experiment: growth inhibition of control SK(-) GAS strain, dose response, counter-screen for streptokinase expression inhibitor project, luminescence, kanamycin, BacTiterGlo, confirmation (AID 1900); type: functional, organism-based
Streptokinase A = molecular target: T6, Streptokinase A (Streptococcus pyogenes serotype M1, UniProt P10520); experiment: S. pyogenes streptokinase expression inhibitors, potency, dose response, plasminogen activation absorbance, OD405 (AID 1914); type: functional, Streptococcus pyogenes M1 GAS;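 further: secreted streptokinase activity via plasminogen activation per viability signal from cell pellet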
T6 sequence (P10520 whole entry): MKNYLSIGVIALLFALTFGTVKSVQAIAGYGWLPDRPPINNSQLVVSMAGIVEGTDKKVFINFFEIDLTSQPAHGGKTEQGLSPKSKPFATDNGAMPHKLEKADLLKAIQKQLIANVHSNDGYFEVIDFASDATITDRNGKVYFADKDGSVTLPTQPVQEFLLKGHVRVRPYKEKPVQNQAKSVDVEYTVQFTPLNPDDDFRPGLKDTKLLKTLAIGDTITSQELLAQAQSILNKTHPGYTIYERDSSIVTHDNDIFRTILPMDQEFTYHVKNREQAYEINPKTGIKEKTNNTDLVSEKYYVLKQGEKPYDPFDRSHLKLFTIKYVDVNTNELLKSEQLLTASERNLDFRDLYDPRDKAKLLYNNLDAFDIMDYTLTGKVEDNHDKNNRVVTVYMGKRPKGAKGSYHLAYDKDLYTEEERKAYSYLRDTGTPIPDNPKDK

[16] = inhibitors of intracellular T. cruzi replication, confirmation, NIH3T3 host cells, beta-gal luminescence (AID 2044); type: functional, cell-based;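 further: intracellular parasites grown in NIH/3T3 mouse fibroblasts as host cells; luminescent beta-galactosidase reporter signal from transgenic T. cruzi replicating inside host cells; inhibitors lower the luminescence signal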
[17] = cytotoxicity toward NIH3T3 fibroblasts, dose response, counter-screen, cell-based, ATP luminescence, mouse fibroblasts (AID 2010); type: functional;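 further: cells exposed to compound for about 90 hours before reading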
Streptococcus = experiment: Group A Streptococcus viability loss, dose response, counter-screen for streptokinase expression inhibitor project, luminescence, BacTiterGlo (AID 1915); type: functional, organism-based;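 further: potency for reduction of bacterial viability or growth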
[18] = molecular target: Tyrosine-protein phosphatase non-receptor type 11 (Homo sapiens, UniProt Q06124); experiment: SHP2 phosphatase inhibition, dose response, selectivity assay for STEP inhibitor project, biochemical (AID 602367); type: functional; conditions: read-out: IC50_Mean
[19] = molecular target: Tyrosine-protein phosphatase non-receptor type 5 (Homo sapiens, UniProt P54829); experiment: STEP phosphatase inhibitors, confirmation, biochemical, fluorescence intensity, uHTS hits (AID 602372); type: functional; conditions: read-out: IC50_Mean
[20] = molecular target: Dual specificity protein phosphatase 3 (Homo sapiens, UniProt P51452); experiment: VHR phosphatase inhibition, dose response, selectivity assay for STEP inhibitor project, biochemical (AID 602374); type: functional; conditions: read-out: IC50_Mean
[21] = Counterscreen for […] of the human trace amine associated receptor 1 (TAAR1): Fluorescence-based cell-based high throughput dose response assay to identify nonselective Ga16 agonists.; type: functional
[22] = molecular target: T7, Trace amine-associated receptor 1 (Homo sapiens, UniProt Q96RJ0); experiment: Fluorescence-based cell-based high throughput dose response assay to identify antagonists of the human trace amine associated receptor 1 (TAAR1).; type: functional
T7 sequence (Q96RJ0 whole entry): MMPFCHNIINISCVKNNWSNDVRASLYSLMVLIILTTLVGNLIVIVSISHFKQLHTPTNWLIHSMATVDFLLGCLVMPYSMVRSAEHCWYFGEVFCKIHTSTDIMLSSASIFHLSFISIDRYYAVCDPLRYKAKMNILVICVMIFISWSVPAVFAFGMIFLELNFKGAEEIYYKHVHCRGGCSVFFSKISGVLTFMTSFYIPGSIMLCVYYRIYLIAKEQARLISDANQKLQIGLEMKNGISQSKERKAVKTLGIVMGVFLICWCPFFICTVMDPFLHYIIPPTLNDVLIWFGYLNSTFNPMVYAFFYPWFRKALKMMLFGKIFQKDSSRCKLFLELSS

[23] = Counterscreen for antagonists of the human trace amine associated receptor 1 (hTAAR1): Fluorescence-based cell-based high throughput dose response assay to identify nonselective Ga16 antagonists.; type: functional
[24] = molecular target: T7, Trace amine-associated receptor 1; experiment: Counterscreen for antagonists of the human trace amine associated receptor 1 (hTAAR1): Fluorescence-based cell-based high throughput dose response assay to identify TAAR1 Agonists.; type: functional
A549 = experiment: A549 cell toxicity, dose response, cytotoxicity control, plate reader, cherry-pick samples (AID 687028); type: functional, cell-based; conditions: Homo sapiens

T2 sequence (P11940 whole entry): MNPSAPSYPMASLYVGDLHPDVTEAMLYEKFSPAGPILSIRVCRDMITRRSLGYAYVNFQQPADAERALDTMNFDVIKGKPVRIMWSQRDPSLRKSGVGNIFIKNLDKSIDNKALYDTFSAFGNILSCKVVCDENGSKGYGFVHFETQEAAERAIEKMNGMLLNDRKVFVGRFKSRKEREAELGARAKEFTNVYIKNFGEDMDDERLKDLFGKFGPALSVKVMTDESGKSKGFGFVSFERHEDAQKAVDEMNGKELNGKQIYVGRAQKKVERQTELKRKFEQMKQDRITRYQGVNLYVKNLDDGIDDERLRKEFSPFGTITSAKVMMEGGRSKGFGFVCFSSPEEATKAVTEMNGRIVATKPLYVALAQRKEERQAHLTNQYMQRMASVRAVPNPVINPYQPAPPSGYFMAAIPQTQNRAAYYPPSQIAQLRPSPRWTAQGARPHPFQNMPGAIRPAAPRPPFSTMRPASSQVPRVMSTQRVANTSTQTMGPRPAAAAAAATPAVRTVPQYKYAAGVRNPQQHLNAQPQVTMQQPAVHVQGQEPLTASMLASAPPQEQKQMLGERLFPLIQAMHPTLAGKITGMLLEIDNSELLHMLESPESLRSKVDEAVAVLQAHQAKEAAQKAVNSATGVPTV
Sequence of Mitochondrial peptide methionine sulfoxide reductase (P54149 whole entry): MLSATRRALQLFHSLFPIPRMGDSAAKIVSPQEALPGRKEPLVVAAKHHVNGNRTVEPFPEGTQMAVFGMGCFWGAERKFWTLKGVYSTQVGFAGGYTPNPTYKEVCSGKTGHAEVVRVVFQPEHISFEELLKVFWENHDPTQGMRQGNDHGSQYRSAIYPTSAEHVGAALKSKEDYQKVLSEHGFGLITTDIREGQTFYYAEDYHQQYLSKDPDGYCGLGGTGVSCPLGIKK
Sequence of Tyrosine-protein phosphatase non-receptor type 5 (P54829 whole entry): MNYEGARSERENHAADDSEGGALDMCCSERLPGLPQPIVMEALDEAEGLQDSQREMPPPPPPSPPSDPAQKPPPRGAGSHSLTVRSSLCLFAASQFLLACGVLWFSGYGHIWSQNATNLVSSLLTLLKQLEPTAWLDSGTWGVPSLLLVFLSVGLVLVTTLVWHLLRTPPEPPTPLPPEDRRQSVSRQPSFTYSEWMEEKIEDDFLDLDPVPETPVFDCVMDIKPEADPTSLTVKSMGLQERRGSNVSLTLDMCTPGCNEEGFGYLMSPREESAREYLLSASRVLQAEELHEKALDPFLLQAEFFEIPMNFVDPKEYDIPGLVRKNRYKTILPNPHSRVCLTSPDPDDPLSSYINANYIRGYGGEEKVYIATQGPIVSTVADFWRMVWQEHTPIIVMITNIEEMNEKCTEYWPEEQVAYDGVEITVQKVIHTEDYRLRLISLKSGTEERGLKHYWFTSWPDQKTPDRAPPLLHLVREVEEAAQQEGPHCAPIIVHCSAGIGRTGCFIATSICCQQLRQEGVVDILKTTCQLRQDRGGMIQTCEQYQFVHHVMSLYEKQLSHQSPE
Sequence of Tyrosine-protein phosphatase non-receptor type 11 (Q06124 whole entry): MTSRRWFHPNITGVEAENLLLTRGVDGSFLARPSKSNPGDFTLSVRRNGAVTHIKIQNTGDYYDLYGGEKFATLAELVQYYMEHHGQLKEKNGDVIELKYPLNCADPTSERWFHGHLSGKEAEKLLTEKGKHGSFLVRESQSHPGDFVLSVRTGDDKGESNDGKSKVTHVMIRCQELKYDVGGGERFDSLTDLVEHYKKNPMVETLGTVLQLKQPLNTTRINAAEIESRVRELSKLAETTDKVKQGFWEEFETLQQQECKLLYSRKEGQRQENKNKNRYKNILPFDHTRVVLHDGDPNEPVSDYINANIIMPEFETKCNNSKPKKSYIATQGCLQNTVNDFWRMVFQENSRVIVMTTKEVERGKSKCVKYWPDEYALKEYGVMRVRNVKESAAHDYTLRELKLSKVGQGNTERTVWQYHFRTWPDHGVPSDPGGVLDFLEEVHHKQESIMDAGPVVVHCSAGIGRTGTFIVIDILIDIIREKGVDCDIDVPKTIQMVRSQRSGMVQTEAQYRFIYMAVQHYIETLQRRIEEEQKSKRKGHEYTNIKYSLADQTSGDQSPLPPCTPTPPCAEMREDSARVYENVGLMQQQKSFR
Sequence of Dual specificity protein phosphatase 3 (P51452 whole entry): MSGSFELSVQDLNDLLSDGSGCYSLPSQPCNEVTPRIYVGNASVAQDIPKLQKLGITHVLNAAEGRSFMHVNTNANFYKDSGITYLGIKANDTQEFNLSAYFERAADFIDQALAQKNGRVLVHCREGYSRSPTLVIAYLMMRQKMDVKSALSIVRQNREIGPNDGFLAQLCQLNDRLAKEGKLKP
Sequence of SWI/SNF-related matrix-associated actin-dependent regulator of chromatin subfamily A member 2 (P51531 whole entry): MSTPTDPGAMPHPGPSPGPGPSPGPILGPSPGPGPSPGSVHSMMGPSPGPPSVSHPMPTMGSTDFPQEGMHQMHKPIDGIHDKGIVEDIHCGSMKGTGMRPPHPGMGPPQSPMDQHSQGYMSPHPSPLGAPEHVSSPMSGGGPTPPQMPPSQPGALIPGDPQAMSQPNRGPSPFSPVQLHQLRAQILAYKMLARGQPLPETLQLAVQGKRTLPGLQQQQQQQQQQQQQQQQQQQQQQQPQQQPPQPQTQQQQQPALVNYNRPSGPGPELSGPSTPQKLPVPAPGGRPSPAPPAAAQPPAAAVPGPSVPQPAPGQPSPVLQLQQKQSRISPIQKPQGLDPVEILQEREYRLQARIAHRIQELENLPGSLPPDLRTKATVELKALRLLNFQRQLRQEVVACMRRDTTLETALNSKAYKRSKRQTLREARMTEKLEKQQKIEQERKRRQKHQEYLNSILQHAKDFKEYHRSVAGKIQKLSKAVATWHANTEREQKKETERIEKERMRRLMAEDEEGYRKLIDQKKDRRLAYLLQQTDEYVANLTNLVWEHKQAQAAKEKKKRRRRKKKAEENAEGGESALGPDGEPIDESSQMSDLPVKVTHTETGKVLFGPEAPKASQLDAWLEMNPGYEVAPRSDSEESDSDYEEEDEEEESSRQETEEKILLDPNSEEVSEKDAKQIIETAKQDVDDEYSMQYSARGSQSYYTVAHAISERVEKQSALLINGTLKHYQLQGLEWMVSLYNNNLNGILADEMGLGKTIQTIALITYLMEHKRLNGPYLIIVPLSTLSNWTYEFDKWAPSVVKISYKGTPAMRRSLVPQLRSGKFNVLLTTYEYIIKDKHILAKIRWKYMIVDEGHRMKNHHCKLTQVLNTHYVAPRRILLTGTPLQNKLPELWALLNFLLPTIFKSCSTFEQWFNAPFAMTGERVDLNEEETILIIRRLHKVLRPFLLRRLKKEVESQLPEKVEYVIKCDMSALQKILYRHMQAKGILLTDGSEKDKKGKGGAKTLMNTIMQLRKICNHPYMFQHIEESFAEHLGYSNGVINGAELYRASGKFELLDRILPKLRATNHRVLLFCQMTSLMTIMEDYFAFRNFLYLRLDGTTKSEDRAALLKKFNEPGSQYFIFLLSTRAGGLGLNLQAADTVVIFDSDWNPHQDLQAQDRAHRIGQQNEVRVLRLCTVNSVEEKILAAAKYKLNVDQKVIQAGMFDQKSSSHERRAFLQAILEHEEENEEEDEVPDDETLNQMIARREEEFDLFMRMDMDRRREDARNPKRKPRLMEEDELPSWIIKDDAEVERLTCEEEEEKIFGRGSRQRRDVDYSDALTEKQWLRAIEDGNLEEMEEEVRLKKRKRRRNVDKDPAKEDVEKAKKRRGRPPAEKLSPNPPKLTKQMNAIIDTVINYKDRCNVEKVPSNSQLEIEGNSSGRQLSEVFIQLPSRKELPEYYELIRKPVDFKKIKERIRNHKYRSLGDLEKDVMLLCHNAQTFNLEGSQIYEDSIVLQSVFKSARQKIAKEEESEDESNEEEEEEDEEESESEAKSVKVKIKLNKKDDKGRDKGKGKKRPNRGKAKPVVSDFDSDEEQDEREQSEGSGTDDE

NC(=S)N/N=C/c1ccc(-c2cccc([N+](=O)[O-])c2)o1
IC50 [1]: 155 µM (inactive)
IC50 [2]: > 100 µM (active)

C[C@H](CO)N1C[C@H](C)[C@H](CN(C)CC2CCCCC2)OCCCC[C@H](C)Oc2ccc(NC(=O)Nc3cccc4ccccc34)cc2C1=O
AC50 [3]: 3.25 µM (active)

C/C(=N\NC(=S)N1CCN(C2CCCCCC2)CC1)c1ccccn1
GI50 (P388/ADR): < 0.01 µM (active)
GI50 (SN12K1): 0.01 µM (active)
GI50 (P388): < 0.01 µM (active)
AbsAC35 [4]: 162.11 µM

Cn1cc(-c2nc3ccccc3[nH]2)c2ccccc21
EC50 [5]: 3.76 µM (active)
EC50 [6]: > 91.2 µM (inactive)
EC50 [7]: > 91.2 µM (inactive)

Cc1ccc(N2C(=O)[C@@H]3[C@H](C2=O)C2c4ccccc4C=CN2[C@@H]3C(=O)c2ccco2)cc1 (stereo partly drawn)
IC50 [8]: > 66 µM (inactive)
IC50 [9]: > 66 µM (inactive)
IC50 [10]: 5.38 µM (active)
IC50 [11]: 0.785 µM (active)
IC50 (Caspase-3): 4.41 µM (active)

COC(=O)C1=C/C=C\CN(C(c2ccccc2)c2ccccc2)/C=C\1C(=O)OC
IC50 [12]: 5.7 µM (active)
EC50 [13]: > 53 µM (inactive)
IC50 [14]: > 20 µM (inactive)

SC1=NC(C23CC4CC(CC(C4)C2)C3)=CC(c2ccc3c(c2)OCO3)N1 (stereo not drawn)
EC50 [15]: 13.6 µM (active)
EC50 (Streptokinase A): 22.5 µM (active)
EC50 [16]: 2.44 µM (active)
EC50 [17]: > 60 µM (not active)
EC50 (Streptococcus): > 150 µM (not active)
IC50 [18]: 15 µM (active)
IC50 [19]: 56.8 µM (inactive)
IC50 [20]: 3.52 µM (active)

CN(CC(=O)Nc1cccc(F)c1)C(=O)c1ccccc1OCC(=O)Nc1cccc(C(F)(F)F)c1
EC50 [16]: 0.775 µM (active)
EC50 [17]: > 60 µM (not active)
EC50 [21]: > 29.9 µM (inactive)
IC50 [22]: 6.89 µM (active)
IC50 [23]: 13.5 µM (inactive)
EC50 [24]: > 29.9 µM (inactive)

CCCCCCCCN1C(=O)[C@H](CC(=O)NCCC(C)C)C[C@@]2(C(=O)OCC)CCCC=C12
AC50 (A549): 21 µM (active)
